Results as given in paper PMC6109063 (Nature Communications, 2018).

Target: T1, FgGcn5 (Fusarium graminearum, UniProt I1R9W6)
T1 construct: gene FGRAMPH1_01T00753
Settings: inhibitor; 30 ug/ml PCN; recombinant GST-H3 substrate, 5 mM acetyl-CoA, Tris-HCl pH 8.0, 37 C, 45 min

T1 sequence (I1R9W6 1-396): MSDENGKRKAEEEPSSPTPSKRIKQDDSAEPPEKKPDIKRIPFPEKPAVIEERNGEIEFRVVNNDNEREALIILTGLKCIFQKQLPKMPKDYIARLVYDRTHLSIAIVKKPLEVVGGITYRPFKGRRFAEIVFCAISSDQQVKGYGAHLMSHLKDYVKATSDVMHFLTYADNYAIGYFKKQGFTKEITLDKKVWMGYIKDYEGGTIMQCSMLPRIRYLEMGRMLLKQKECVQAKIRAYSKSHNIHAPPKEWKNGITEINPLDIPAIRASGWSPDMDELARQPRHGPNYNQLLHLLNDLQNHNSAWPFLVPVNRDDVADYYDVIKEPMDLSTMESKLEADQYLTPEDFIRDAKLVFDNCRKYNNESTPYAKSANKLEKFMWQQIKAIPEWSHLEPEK

NC(=O)c1cccc2nc3ccccc3nc12 [PCN, phenazine-1-carboxamide]
in vitro histone H3 acetylation assay, immunoblot (H3 pan-acetyl and H3K18ac): demonstrating that PCN was able to inhibit the HAT activity of FgGcn5 in vitro
